{"source": "patent US12071453B2", "about": "“Neuroactive steroids, compositions, and uses thereof” (Sage Therapeutics, Inc., priority 2013, dated 2024)", "key": {"[1]": {"target": "[35S]-TBPS binding in rat brain cortical membranes", "assay": "Steroid inhibition of [35S]-TBPS binding, rat brain cortical membranes", "conditions": "3 nM [35S]-TBPS, in the presence of 5 μM GABA, read-out: 35S-TBPS Radioligand Displacement (IC50)", "outline": "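Washed P2 cortical membranes from Sprague-Dawley rats were incubated 90 min at room temperature with 3 nM [35S]-TBPS, 5 μM GABA and test steroid (0.5% DMSO) in 200 mM NaCl/50 mM Na–K phosphate, pH 7.4. Nonspecific binding was defined with 2 μM unlabeled TBPS, and samples were filtered and counted. IC50 and Imax came from non-linear fits, reported as mean ± SEM.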"}, "[2]": {"target": "T1, recombinant α1β2γ2 GABAA receptors (Homo sapiens, UniProt P14867+P47870)", "T1 construct": "expressed in transfected cells; host or cells: LTK cells, stably transfected", "T1 sequence (P14867 28-456)": "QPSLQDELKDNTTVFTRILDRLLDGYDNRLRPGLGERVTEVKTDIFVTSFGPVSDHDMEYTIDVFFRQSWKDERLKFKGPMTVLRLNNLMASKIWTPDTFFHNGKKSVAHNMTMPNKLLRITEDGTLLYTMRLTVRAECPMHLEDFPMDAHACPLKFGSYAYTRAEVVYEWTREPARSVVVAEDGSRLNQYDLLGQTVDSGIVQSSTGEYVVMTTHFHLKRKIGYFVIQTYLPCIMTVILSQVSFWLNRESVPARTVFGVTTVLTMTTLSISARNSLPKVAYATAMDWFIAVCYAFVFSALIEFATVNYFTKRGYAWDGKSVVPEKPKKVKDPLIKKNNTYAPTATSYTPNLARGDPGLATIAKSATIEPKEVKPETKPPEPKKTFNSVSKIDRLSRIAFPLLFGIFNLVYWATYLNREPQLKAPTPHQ", "T1 sequence (P47870 26-512)": "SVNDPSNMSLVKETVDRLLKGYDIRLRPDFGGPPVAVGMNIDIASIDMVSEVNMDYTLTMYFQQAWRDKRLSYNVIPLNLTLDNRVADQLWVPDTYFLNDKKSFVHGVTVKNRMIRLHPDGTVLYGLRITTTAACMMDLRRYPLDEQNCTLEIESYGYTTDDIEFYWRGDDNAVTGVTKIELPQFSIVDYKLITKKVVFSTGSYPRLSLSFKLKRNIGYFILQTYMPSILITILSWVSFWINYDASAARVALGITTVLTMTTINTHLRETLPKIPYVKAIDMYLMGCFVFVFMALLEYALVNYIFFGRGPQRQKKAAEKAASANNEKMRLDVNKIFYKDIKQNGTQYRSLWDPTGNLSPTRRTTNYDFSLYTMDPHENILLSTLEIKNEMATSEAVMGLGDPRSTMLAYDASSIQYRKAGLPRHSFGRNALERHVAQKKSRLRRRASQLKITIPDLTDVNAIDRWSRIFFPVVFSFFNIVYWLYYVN", "T1 sequence (P18507 40-475 partner)": "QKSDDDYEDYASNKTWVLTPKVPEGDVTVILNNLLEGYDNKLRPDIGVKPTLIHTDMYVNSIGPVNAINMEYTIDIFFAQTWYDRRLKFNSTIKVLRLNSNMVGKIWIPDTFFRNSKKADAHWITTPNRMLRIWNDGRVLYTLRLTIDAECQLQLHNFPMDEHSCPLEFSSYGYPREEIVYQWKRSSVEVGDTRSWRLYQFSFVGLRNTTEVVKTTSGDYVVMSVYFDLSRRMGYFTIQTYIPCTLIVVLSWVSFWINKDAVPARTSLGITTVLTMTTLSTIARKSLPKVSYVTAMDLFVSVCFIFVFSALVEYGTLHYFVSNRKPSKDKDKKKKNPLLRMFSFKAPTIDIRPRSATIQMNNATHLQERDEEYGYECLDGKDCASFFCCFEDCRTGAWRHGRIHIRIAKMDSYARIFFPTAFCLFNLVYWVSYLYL", "assay": "Patch clamp electrophysiology (QPatch) in LTK cells stably transfected with α1β2γ2", "assay_type": "cell-based", "conditions": "10 μM compound, 2 μM GABA (EC20), read-out: GABA (α1β2γ2) Qpatch in Ltk, % efficacy at 10 μM"}, "[3]": {"target": "T2, recombinant α4β3δ GABAA receptors (Homo sapiens, UniProt P28472+P48169)", "T2 construct": "expressed in transfected cells; host or cells: CHO cells, transiently transfected (Lipofectamine)", "T2 sequence (P48169 36-554)": "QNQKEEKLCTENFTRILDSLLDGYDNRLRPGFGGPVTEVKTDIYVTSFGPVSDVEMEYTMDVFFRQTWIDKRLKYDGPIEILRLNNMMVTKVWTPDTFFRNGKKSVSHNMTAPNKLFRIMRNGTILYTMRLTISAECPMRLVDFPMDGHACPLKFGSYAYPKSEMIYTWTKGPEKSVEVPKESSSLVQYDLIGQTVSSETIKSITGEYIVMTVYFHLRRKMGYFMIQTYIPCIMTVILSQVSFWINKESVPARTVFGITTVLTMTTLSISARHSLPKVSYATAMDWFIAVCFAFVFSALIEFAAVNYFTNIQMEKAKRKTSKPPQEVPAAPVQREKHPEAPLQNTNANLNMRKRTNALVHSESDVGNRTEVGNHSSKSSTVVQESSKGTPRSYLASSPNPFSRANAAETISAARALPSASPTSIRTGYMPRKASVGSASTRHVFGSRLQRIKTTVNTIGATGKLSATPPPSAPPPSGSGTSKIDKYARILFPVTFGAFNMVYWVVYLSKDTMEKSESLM", "T2 sequence (P28472 26-473)": "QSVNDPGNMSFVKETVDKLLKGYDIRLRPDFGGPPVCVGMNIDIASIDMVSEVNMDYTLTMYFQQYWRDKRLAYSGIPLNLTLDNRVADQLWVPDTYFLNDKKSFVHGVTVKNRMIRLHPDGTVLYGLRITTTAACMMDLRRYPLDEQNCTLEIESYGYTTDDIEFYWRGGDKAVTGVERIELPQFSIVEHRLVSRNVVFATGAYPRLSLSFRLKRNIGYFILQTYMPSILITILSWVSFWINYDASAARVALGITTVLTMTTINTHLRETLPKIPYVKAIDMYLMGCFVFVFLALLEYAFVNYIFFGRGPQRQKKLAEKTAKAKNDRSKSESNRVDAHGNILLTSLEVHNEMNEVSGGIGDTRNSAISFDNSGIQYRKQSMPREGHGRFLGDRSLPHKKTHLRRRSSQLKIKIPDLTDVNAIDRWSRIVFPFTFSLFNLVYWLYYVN", "T2 sequence (O14764 25-452 partner)": "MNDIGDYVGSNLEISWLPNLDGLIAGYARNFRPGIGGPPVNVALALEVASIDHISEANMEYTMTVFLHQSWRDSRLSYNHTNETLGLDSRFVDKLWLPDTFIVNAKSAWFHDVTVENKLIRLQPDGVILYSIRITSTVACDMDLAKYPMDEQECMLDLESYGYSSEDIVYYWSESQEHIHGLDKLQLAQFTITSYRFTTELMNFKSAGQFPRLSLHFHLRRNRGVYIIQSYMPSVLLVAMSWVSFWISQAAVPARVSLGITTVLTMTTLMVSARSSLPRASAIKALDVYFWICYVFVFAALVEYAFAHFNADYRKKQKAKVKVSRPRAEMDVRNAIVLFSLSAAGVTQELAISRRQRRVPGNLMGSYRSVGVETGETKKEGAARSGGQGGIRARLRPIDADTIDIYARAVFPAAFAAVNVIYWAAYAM", "assay": "Manual patch clamp electrophysiology in CHO cells transiently transfected with α4β3δ", "assay_type": "cell-based", "conditions": "10 μM compound, 2 μM GABA (EC20), read-out: GABA (α4β3δ) Manual patch in CHO, % efficacy at 10 μM"}, "[4]": {"target": "T3, GABAA receptors composed of the α4β3δ subunits (GABRA4/GABRB3/GABRD) (Homo sapiens, UniProt P28472+P48169)", "T3 construct": "expressed in transfected cells; host or cells: Xenopus laevis oocytes, injected (ratio 5:1:5)", "T3 sequence (P48169 36-554)": "as the sequence (P48169 36-554) above", "T3 sequence (P28472 26-473)": "as the sequence (P28472 26-473) above", "T3 sequence (O14764 25-452 partner)": "as the sequence (O14764 25-452 partner) above", "assay": "Two Electrode Voltage Clamp (TEVC), GABA receptor potentiation in Xenopus laevis oocytes, α4β3δ", "assay_type": "cell-based", "conditions": "10 μM compound, 3 μM GABA, read-out: GABA (α4β3δ) % efficacy at 10 μM", "protocol": "The Two Electrode Voltage Clamp (TEVC) technique was used to investigate the effects of compounds at a concentration of 10 μM on GABAA receptors composed of the α1β2γ2 or α4β3δ subunits expressed in oocytes from the Xenopus laevis. GABA-evoked currents were recorded from oocytes that expressed the GABA receptors and the modulatory effects of the test items on these currents were investigated.\nOvaries were harvested from Xenopus laevis females that had been deeply anesthetized by cooling at 4° C. and immersion in Tricaine methanesulfonate (MS-222 at a concentration of 150 mg/L) in sodium bicarbonate (300 mg/L). Once anesthetized the animal was decapitated and pithed following the rules of animal rights from the Geneva canton. A small piece of ovary was isolated for immediate preparation while the remaining part was placed at 4° C. in a sterile Barth solution containing in mM NaCl 88, KCl 1, NaHCO3 2.4, HEPES 10, MgSO4·7H2O 0.82, Ca(NO3)2·4H2O 0.33, CaCl2·6H2O 0.41, at pH 7.4, and supplemented with 20 μg/ml of kanamycin, 100 unit/ml penicillin and 100 μg/ml streptomycin. All recordings were performed at 18° C. and cells were super-fused with medium containing in mM: NaCl 82.5, KCl 2.5, HEPES 5, CaCl2·2H2O, ·6H2O 1, pH 7.4.\nPlasmids containing the RNAs of the human GABRA1/GABRB2/GABRG2 and GABRA4/GABRB3/GABRD genes were injected into oocytes using a proprietary automated injection device (Hogg el al., J. Neurosci. Methods, (2008) 169: 65-75). These genes encode for the α1β2γ2 and α4β3δ GABAA subunits respectively. Receptor expression was assessed using electrophysiology at least two days later. The ratio of RNA injection for α1β2γ2 was 1:1:1 and for α4β3δ was 5:1:5. Electrophysiological recordings were made using an automated process equipped with standard TEVC and data were captured and analyzed using a proprietary data acquisition and analysis software running under Matlab (Mathworks Inc.). The membrane potential of the oocytes was maintained at −80 mV throughout the experiments. To explore the effects of proprietary compounds, currents were evoked by applying 10 μM (α1β2γ2) or 3 μM (α4β3δ) GABA for 30 s. These concentrations approximated the EC50 concentration of GABA at each receptor subtype. Oocytes were then re-exposed to GABA again for 30 s. 15 s after beginning the GABA application, test article was co-applied at a concentration of 10 μM for 15 s. Potentiation of the peak current was assessed. Data was filtered at 10 Hz, captured at 100 Hz and analyzed using proprietary data acquisition and analysis software running under Matlab (Mathworks Inc.). For statistical analysis values were computed either with Excel (Microsoft) or Matlab (mathworks Inc.). To obtain mean measurements with standard deviations, all experiments were carried out using at least three cells."}, "[5]": {"target": "T4, GABAA receptors composed of the α1β2γ2 subunits (GABRA1/GABRB2/GABRG2) (Homo sapiens, UniProt P14867+P47870)", "T4 construct": "expressed in transfected cells; host or cells: Xenopus laevis oocytes, injected (ratio 1:1:1)", "T4 sequence (P14867 28-456)": "as the sequence (P14867 28-456) above", "T4 sequence (P47870 26-512)": "as the sequence (P47870 26-512) above", "T4 sequence (P18507 40-475 partner)": "as the sequence (P18507 40-475 partner) above", "assay": "Two Electrode Voltage Clamp (TEVC), GABA receptor potentiation in Xenopus laevis oocytes, α1β2γ2", "assay_type": "cell-based", "conditions": "10 μM compound, 10 μM GABA, read-out: GABA (α1β2γ2) % efficacy at 10 μM"}}, "data": [{"smiles": "COC[C@]12CC[C@@](C)(O)C[C@@H]1CC[C@H]1[C@@H]3CC[C@H](C(=O)Cn4nnc5cc(Cl)ccc54)[C@@]3(C)CC[C@@H]12", "note": "[Compound 37]", "values": [{"measurement": "IC50", "setting": "[1]", "result": "10 to 50", "unit": "nM"}, {"measurement": "Emax at 10 µM", "setting": "[2]", "result": "> 500", "unit": "%"}, {"measurement": "Emax at 10 µM", "setting": "[3]", "result": "> 500", "unit": "%"}]}, {"smiles": "COC[C@]12CC[C@@](C)(O)C[C@@H]1CC[C@H]1[C@@H]3CC[C@H](C(=O)Cn4nc5ccc(F)cc5n4)[C@@]3(C)CC[C@@H]12", "note": "[Compound 43]", "values": [{"measurement": "IC50", "setting": "[1]", "result": "< 10", "unit": "nM"}, {"measurement": "Emax at 10 µM", "setting": "[2]", "result": "> 500", "unit": "%"}, {"measurement": "Emax at 10 µM", "setting": "[3]", "result": "100 to 500", "unit": "%"}]}, {"smiles": "COC[C@]12CC[C@@](C)(O)C[C@@H]1CC[C@H]1[C@@H]3CC[C@H](C(=O)Cn4nnc5ccc(F)c(F)c54)[C@@]3(C)CC[C@@H]12", "note": "[Compound 52]", "values": [{"measurement": "IC50", "setting": "[1]", "result": "10 to 50", "unit": "nM"}, {"measurement": "Emax at 10 µM", "setting": "[2]", "result": "100 to 500", "unit": "%"}, {"measurement": "Emax at 10 µM", "setting": "[3]", "result": "> 500", "unit": "%"}]}, {"smiles": "COC[C@]12CC[C@@](C)(O)C[C@@H]1CC[C@H]1[C@@H]3CC[C@H](C(=O)Cn4nc5ccc(F)c(F)c5n4)[C@@]3(C)CC[C@@H]12", "note": "[Compound 54]", "values": [{"measurement": "IC50", "setting": "[1]", "result": "10 to 50", "unit": "nM"}, {"measurement": "Emax at 10 µM", "setting": "[2]", "result": "100 to 500", "unit": "%"}, {"measurement": "Emax at 10 µM", "setting": "[3]", "result": "> 500", "unit": "%"}]}, {"smiles": "COC[C@]12CC[C@@](C)(O)C[C@@H]1CC[C@H]1[C@@H]3CC[C@H](C(=O)Cn4nc5cc(F)cc(F)c5n4)[C@@]3(C)CC[C@@H]12", "note": "[Compound 55]", "values": [{"measurement": "IC50", "setting": "[1]", "result": "50 to 100", "unit": "nM"}, {"measurement": "Emax at 10 µM", "setting": "[2]", "result": "> 500", "unit": "%"}, {"measurement": "Emax at 10 µM", "setting": "[3]", "result": "> 500", "unit": "%"}]}, {"smiles": "COC[C@]12CC[C@@](C)(O)C[C@H]1CC[C@H]1[C@@H]3CC[C@H](C(=O)Cn4nc5ccc(Cl)cc5n4)[C@@]3(C)CC[C@@H]12", "note": "[Compound 76]", "values": [{"measurement": "IC50", "setting": "[1]", "result": "< 10", "unit": "nM"}, {"measurement": "Emax at 10 µM", "setting": "[2]", "result": "> 500", "unit": "%"}, {"measurement": "Emax at 10 µM", "setting": "[3]", "result": "> 500", "unit": "%"}]}, {"smiles": "COC[C@]12CC[C@@](C)(O)C[C@H]1CC[C@H]1[C@@H]3CC[C@H](C(=O)Cn4nc5ccc(F)c(F)c5n4)[C@@]3(C)CC[C@@H]12", "note": "[Compound 79]", "values": [{"measurement": "IC50", "setting": "[1]", "result": "< 10", "unit": "nM"}, {"measurement": "Emax at 10 µM", "setting": "[4]", "result": "1000 to 1500", "unit": "%"}, {"measurement": "Emax at 10 µM", "setting": "[5]", "result": "500 to 1000", "unit": "%"}]}, {"smiles": "COC[C@]12CC[C@@](C)(O)C[C@@H]1CC[C@H]1[C@@H]3CC[C@H](C(=O)Cn4nnc5cc(F)c(F)cc54)[C@@]3(C)CC[C@@H]12", "note": "[Compound 98]", "values": [{"measurement": "IC50", "setting": "[1]", "result": "50 to 100", "unit": "nM"}, {"measurement": "Emax at 10 µM", "setting": "[4]", "result": "1000 to 1500", "unit": "%"}, {"measurement": "Emax at 10 µM", "setting": "[5]", "result": "500 to 1000", "unit": "%"}]}, {"smiles": "COC[C@]12CC[C@@](C)(O)C[C@@H]1CC[C@H]1[C@@H]3CC[C@H](C(=O)Cn4ncc5nccnc54)[C@@]3(C)CC[C@@H]12", "note": "[Compound 102]", "values": [{"measurement": "IC50", "setting": "[1]", "result": "100 to 500", "unit": "nM"}, {"measurement": "Emax at 10 µM", "setting": "[4]", "result": "50 to 500", "unit": "%"}, {"measurement": "Emax at 10 µM", "setting": "[5]", "result": "50 to 500", "unit": "%"}]}, {"smiles": "COC[C@]12CC[C@@](C)(O)C[C@@H]1CC[C@H]1[C@@H]3CC[C@H](C(=O)Cn4nc5ccc(OC(F)(F)F)cc5n4)[C@@]3(C)CC[C@@H]12", "note": "[Compound 104]", "values": [{"measurement": "IC50", "setting": "[1]", "result": "50 to 100", "unit": "nM"}, {"measurement": "Emax at 10 µM", "setting": "[4]", "result": "1000 to 1500", "unit": "%"}, {"measurement": "Emax at 10 µM", "setting": "[5]", "result": "50 to 500", "unit": "%"}]}, {"smiles": "COC[C@]12CC[C@@](C)(O)C[C@@H]1CC[C@H]1[C@@H]3CC[C@H](C(=O)Cn4ncc5cc(Cl)ccc54)[C@@]3(C)CC[C@@H]12", "note": "[Compound 105]", "values": [{"measurement": "IC50", "setting": "[1]", "result": "> 500", "unit": "nM"}, {"measurement": "Emax at 10 µM", "setting": "[4]", "result": "1000 to 1500", "unit": "%"}, {"measurement": "Emax at 10 µM", "setting": "[5]", "result": "50 to 500", "unit": "%"}]}, {"smiles": "COC[C@]12CC[C@@](C)(O)C[C@@H]1CC[C@H]1[C@@H]3CC[C@H](C(=O)Cn4cc5cc(Cl)ccc5n4)[C@@]3(C)CC[C@@H]12", "note": "[Compound 106]", "values": [{"measurement": "IC50", "setting": "[1]", "result": "100 to 500", "unit": "nM"}, {"measurement": "Emax at 10 µM", "setting": "[4]", "result": "1000 to 1500", "unit": "%"}, {"measurement": "Emax at 10 µM", "setting": "[5]", "result": "50 to 500", "unit": "%"}]}, {"smiles": "COC[C@]12CC[C@@](C)(O)C[C@@H]1CC[C@H]1[C@@H]3CC[C@H](C(=O)Cn4nc5ccc(Cl)c(F)c5n4)[C@@]3(C)CC[C@@H]12", "note": "[Compound 109]", "values": [{"measurement": "IC50", "setting": "[1]", "result": "50 to 100", "unit": "nM"}, {"measurement": "Emax at 10 µM", "setting": "[4]", "result": "1000 to 1500", "unit": "%"}, {"measurement": "Emax at 10 µM", "setting": "[5]", "result": "50 to 500", "unit": "%"}]}, {"smiles": "COC[C@]12CC[C@@](C)(O)C[C@@H]1CC[C@H]1[C@@H]3CC[C@H](C(=O)Cn4cc5ccc(Cl)cc5n4)[C@@]3(C)CC[C@@H]12", "note": "[Compound 113]", "values": [{"measurement": "IC50", "setting": "[1]", "result": "100 to 500", "unit": "nM"}, {"measurement": "Emax at 10 µM", "setting": "[4]", "result": "500 to 1000", "unit": "%"}, {"measurement": "Emax at 10 µM", "setting": "[5]", "result": "50 to 500", "unit": "%"}]}]}
